# Reference: ChEMBL document CHEMBL1201862, “PubChem BioAssay data set” (2004)
#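 The compound was tested at five concentrations on cells cultured in 96-well plates, with a 48-hour exposure period. GI50 is the concentration that inhibits growth by half.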 Calls of active or inactive are those of the source. Rule as the data show it: active = GI50 up to about 1.1 µM and inactive = higher.
# What was measured:
# Assay in all cases: inhibition of tumour cell growth, NCI panel, 48 h
# A498 = test system: A498
# NCI-H226 = test system: NCI-H226
# IGROV-1 = test system: IGROV-1
# SK-MEL-28 = test system: SK-MEL-28
# 786-0 = test system: 786-0
# SK-MEL-5 = test system: SK-MEL-5
# A549 = test system: A549
# HT-29 = test system: HT-29
# MOLT-4 = test system: MOLT-4
# OVCAR-3 = test system: OVCAR-3
# SN12C = test system: SN12C
# KM-20L2 = test system: KM-20L2
# SNB-75 = test system: SNB-75
# UACC-257 = test system: UACC-257
# TK-10 = test system: TK-10
# NCI-H460 = test system: NCI-H460
# NCI-H23 = test system: NCI-H23
# NCI-H522 = test system: NCI-H522
Compound,GI50 (A498),GI50 (NCI-H226),GI50 (IGROV-1),GI50 (SK-MEL-28),GI50 (786-0),GI50 (SK-MEL-5),GI50 (A549),GI50 (HT-29),GI50 (MOLT-4),GI50 (OVCAR-3),GI50 (SN12C),GI50 (KM-20L2),GI50 (SNB-75),GI50 (UACC-257),GI50 (TK-10),GI50 (NCI-H460),GI50 (NCI-H23),GI50 (NCI-H522)
CCOC(=O)N1C2C=C(C)C(ON2C(=O)c2ccccc2)C2C(C)C(=O)N21 (stereo not given),> 100 µM (inactive),> 100 µM (inactive),> 100 µM (inactive),> 100 µM (inactive),> 100 µM (inactive),> 100 µM (inactive),> 100 µM (inactive),> 100 µM (inactive),> 100 µM (inactive),> 100 µM (inactive),> 100 µM (inactive),> 100 µM (inactive),23.6 µM (inactive),> 100 µM (inactive),> 100 µM (inactive),> 100 µM (inactive),> 100 µM (inactive),–
COc1ccc(O)c(C#N)c1C#N,> 100 µM (inactive),> 100 µM (inactive),> 100 µM (inactive),–,> 100 µM (inactive),> 100 µM (inactive),> 100 µM (inactive),> 100 µM (inactive),> 100 µM (inactive),> 100 µM (inactive),> 100 µM (inactive),> 100 µM (inactive),> 100 µM (inactive),> 100 µM (inactive),> 100 µM (inactive),> 100 µM (inactive),> 100 µM (inactive),> 100 µM (inactive)
O=[N+]([O-])c1cc([N+](=O)[O-])c(C(Cl)C(Cl)c2ccccc2)cc1C(Cl)C(Cl)c1ccccc1 (stereo not given),1.82 µM (inactive),2.23 µM (inactive),2.46 µM (inactive),1.9 µM (inactive),1.69 µM (inactive),1.66 µM (inactive),2.05 µM (inactive),2.17 µM (inactive),2.3 µM (inactive),2.2 µM (inactive),1.75 µM (inactive),2.06 µM (inactive),2.47 µM (inactive),1.84 µM (inactive),2.34 µM (inactive),2.02 µM (inactive),1.65 µM (inactive),1.61 µM (inactive)
O=C(CCn1[nH]c(=O)c(Cl)c(Cl)c1=O)NNC(=O)C[n+]1ccccc1,> 100 µM (inactive),> 100 µM (inactive),> 100 µM (inactive),> 100 µM (inactive),> 100 µM (inactive),> 100 µM (inactive),> 100 µM (inactive),> 100 µM (inactive),> 100 µM (inactive),> 100 µM (inactive),> 100 µM (inactive),> 100 µM (inactive),52.4 µM (inactive),> 10 µM (inactive),> 100 µM (inactive),> 100 µM (inactive),> 100 µM (inactive),> 100 µM (inactive)
CC(C)(C)C#C[P+](c1ccccc1)(c1ccccc1)c1ccccc1,0.23 µM (active),0.33 µM (active),0.578 µM (active),0.0728 µM (active),0.337 µM (active),0.187 µM (active),0.253 µM (active),0.292 µM (active),0.197 µM (active),0.351 µM (active),0.192 µM (active),0.345 µM (active),0.0348 µM (active),0.366 µM (active),1.43 µM (inactive),0.152 µM (active),0.353 µM (active),0.15 µM (active)
CCOC(=O)Cc1nc2ccccc2s1,18.5 µM (inactive),21.8 µM (inactive),39 µM (inactive),15 µM (inactive),18.9 µM (inactive),20.6 µM (inactive),22.9 µM (inactive),19.6 µM (inactive),25.6 µM (inactive),> 10 µM (inactive),16.8 µM (inactive),27.6 µM (inactive),29.3 µM (inactive),17.3 µM (inactive),27.5 µM (inactive),20.4 µM (inactive),15.6 µM (inactive),19.6 µM (inactive)
O=c1[nH]cc(C(F)(C(F)(F)F)C(F)(F)F)c(=O)[nH]1,> 100 µM (inactive),> 100 µM (inactive),> 100 µM (inactive),> 100 µM (inactive),> 100 µM (inactive),> 100 µM (inactive),> 100 µM (inactive),> 100 µM (inactive),> 100 µM (inactive),> 100 µM (inactive),> 100 µM (inactive),> 100 µM (inactive),> 100 µM (inactive),> 100 µM (inactive),> 100 µM (inactive),> 100 µM (inactive),> 100 µM (inactive),> 100 µM (inactive)
O=c1[nH]c(-c2ccccc2)nc2cc(Cl)ccc12,> 100 µM (inactive),73.3 µM (inactive),> 100 µM (inactive),> 100 µM (inactive),> 100 µM (inactive),> 100 µM (inactive),> 100 µM (inactive),> 100 µM (inactive),> 100 µM (inactive),> 100 µM (inactive),–,> 100 µM (inactive),> 100 µM (inactive),> 100 µM (inactive),> 100 µM (inactive),> 100 µM (inactive),> 100 µM (inactive),–
